For 3 molecules, MIC and IC50 results are on record in patent publication US10669290B2, “Beta-lactamase inhibitors” (priority 2012, dated 2020).

One test deals with E. coli ESBL4 CTX-M-15. The test is described as follows: Broth microdilution MIC, E. coli ESBL4. Type of test: cell-based. Particulars: Escherichia coli, ESBL4CTXM15; fixed ceftazidime 4 μg/mL, CAMHB, 16-20 hours 37° C.; read-out: MIC of exemplary compounds in presence of fixed β-lactams, Fixed CAZ, E. coli ESBL4 CTX-M-15. In a few lines:
(§1)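 Test compound was 2-fold serially diluted in cation-adjusted Mueller Hinton broth (final 32 to 0.25 μg/mL) under a fixed β-lactam overlay at 4 μg/ml. Plates were inoculated per CLSI broth microdilution with 3-5 h cultures, incubated 16-20 hours at 37° C, and MIC was read visually.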
In general terms: Broth dilution looks for growth in wells or tubes with falling amounts of substance.

A further test deals with E. cl 144200 p99 AmpC. The test is described as follows: Broth microdilution MIC, E. cloacae 144200. Type of test: cell-based. As to conditions: Enterobacter cloacae; fixed ceftazidime 4 μg/mL, CAMHB, 16-20 hours 37° C.; read-out: MIC of exemplary compounds in presence of fixed β-lactams, Fixed CAZ, E. cl 144200 p99 AmpC. In a few lines:
as §1

The subject of another test is P. aerug. Ps296 VIM-2. The test is described as follows: Broth microdilution MIC, P. aeruginosa Ps296. Format: cell-based. As to conditions: Pseudomonas aeruginosa; fixed meropenem 4 μg/mL, CAMHB, 16-20 hours 37° C.; read-out: MIC of exemplary compounds in presence of fixed β-lactams, Fixed Mero, P. aerug. Ps296 VIM-2. In a few lines:
as §1

The next test concerns the target T1, p99 AmpC (Enterobacter cloacae, UniProt P05364).
T1 construct: made in house; host or cells: E. coli BL21 (DE3)
The test is described as follows: β-Lactamase inhibition, p99 AmpC (nitrocefin substrate). Format: biochemical. As to conditions: nitrocefin 100 μM, 486 nm, 15 min preincubation 37° C., PBS pH 7.4; read-out: IC50 AmpC (Class C). The method, then:
For SHV-5, Kpc-2, p99AmpC and OXA-1 β-lactamases, E. coli BL21 (DE3) bacterial cells carrying expression plasmids (expressed as native untagged proteins) for the individual β-lactamases were grown in 1 L of Superbroth (Teknova Inc. Hollister, Calif.) supplemented with 100 μg/ml kanamycin selection and 1×5052 (0.5% glycerol, 0.05% glucose and 0.2% α-lactose) at 35° C. for 18-20 hours. Cells were harvested by centrifugation (4,000×g, 4° C., 20 min), resuspended in 50 ml of 10 mM HEPES pH 7.5 ( 1/20 of the initial volume). The cells were lysed by sonication (5 pulses of 45 seconds) at 45 W on ice. The lysates were clarified by centrifugation at 10,000×g for 40 minutes at 4° C. Samples were diluted 5-fold in 50 mM sodium acetate pH 5.0, stored overnight at 4° C., after which they were centrifuged at 10,000×g for 30 minutes to clarify, and filtered through 0.45 µm filters. The samples were loaded onto a 5 ml Capto S sepharose cation exchange column (GE Healthcare) pre-equilibrated with 50 mM sodium acetate pH 5.0. The column was washed with 5 column volumes of 50 mM sodium acetate pH 5.0 to wash out unbound protein and a linear gradient of NaCl (0 to 500 mM) was used to elute the protein (over 16 CV) from the column. Fractions were assayed for β-lactamase activity using Centa (Calbiochem, Gibbstown, N.J.) or Nitrocefin (EMD Millipore chemicals, Darmstadt, Germany) as a reporter β-lactamase substrate for activity in the isolated fractions. Active fractions were pooled, concentrated and further purified by gel filtration chromatography on a Superdex 75 prep grade gel filtration column (GE Healthcare, Piscataway, N.J.) pre-equilibrated in 50 mM Hepes pH 7.5, 150 mM NaCl. Active fractions were pooled concentrated, quantitated by BCA protein determination (Thermo Scientific, Rockford, Ill.), dialyzed into PBS and frozen at −80° C. in 20% glycerol until use.
An equal volume of diluted enzyme stock was added, and the plates were incubated at 37° C. for 15 min. Nitrocefin was used as substrate for p99 AmpC, VIM-2 and OXA-1 and dispensed into each well at a final concentration of 100 μM. Absorbance at 486 nm was immediately monitored for 10 min using a Biotek Powerwave XS2 microplate spectrophotometer using the GEN5 software package (Biotek Instruments, Winooski Vt.). In an analogous fashion, imipenem was used as substrate for Kpc-2 and Cefotaxime was used for SHV-5, while changes in absorbance upon hydrolysis of the β-lactam ring were monitored at 300 nm and 260 nm respectively in UV-transparent 96-well microtiter assay plates. Maximum rates of hydrolysis were compared to those in control wells (without inhibitors), and percentages of enzyme inhibition were calculated for each concentration of inhibitor. The concentration of inhibitor needed to reduce the initial rate of hydrolysis of substrate by 50% (IC50) was calculated as the residual activity of β-lactamase at 486 nm using GraFit version 7 kinetics software package (Erithacus Software, Surrey, UK).
Using the methodology described above, examples of the current invention were evaluated for their ability to inhibit β-lactamase enzymes from all four Ambler classifications (A through D). […] NT=Not tested.

The test system of another test is K.P. 156319 KPC-3. Briefly: Broth microdilution MIC, K. pneumoniae 156319. Type of test: cell-based. As to conditions: Klebsiella pneumoniae; fixed meropenem 4 μg/mL, CAMHB, 16-20 hours 37° C.; read-out: MIC of exemplary compounds in presence of fixed β-lactams, Fixed Mero, K.P. 156319 KPC-3.
The subject of the next test is S. aureus MSSA-7 PC-1. The test is described as follows: Broth microdilution MIC, S. aureus MSSA-7. Format: cell-based. As to conditions: Staphylococcus aureus, fixed piperacillin 4 μg/mL, CAMHB, 16-20 hours 37° C., read-out: MIC of exemplary compounds in presence of fixed β-lactams, Fixed Pip, S. aureus MSSA-7 PC-1.
The test system of a further test is K.P. A-1797 KPC-2 VIM-4. Briefly: Broth microdilution MIC, K. pneumoniae A-1797. Particulars: Klebsiella pneumoniae; fixed meropenem 4 μg/mL, CAMHB, 16-20 hours 37° C.; read-out: MIC of exemplary compounds in presence of fixed β-lactams, Fixed Mero, K.P. A-1797 KPC-2 VIM-4. Format: cell-based.

T1 sequence (P05364 21-381): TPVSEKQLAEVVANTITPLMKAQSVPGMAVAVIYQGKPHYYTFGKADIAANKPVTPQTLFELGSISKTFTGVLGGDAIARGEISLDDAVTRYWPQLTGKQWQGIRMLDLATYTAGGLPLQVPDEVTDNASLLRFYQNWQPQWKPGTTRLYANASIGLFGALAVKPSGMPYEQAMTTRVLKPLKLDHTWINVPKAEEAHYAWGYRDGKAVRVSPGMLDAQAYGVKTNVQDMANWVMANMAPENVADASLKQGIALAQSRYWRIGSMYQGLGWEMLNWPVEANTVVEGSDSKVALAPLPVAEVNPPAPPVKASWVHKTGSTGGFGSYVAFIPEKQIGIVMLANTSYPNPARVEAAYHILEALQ

The MIC is the smallest concentration in the dilution series that meets the test's criterion for growth inhibition. What is called IC50 is the midpoint of a concentration-inhibition curve. For the molecule `N=C(N)NC1CN(C2CCC(CC(=O)N[C@H]3Cc4cccc(C(=O)O)c4OB3O)CC2)C1` (stereo partly drawn) [Example 41, (3R)-3-(2-(4-(3-guanidinoazetidin-1-yl)cyclohexyl)acetamido)-2-hydroxy-3,4-dihydro-2H-benzo[e][1,2]oxaborinine-8-carboxylic acid], the MIC was < 4 mg/L in the test with E. coli ESBL4 CTX-M-15; < 4 mg/L in the test with E. cl 144200 p99 AmpC; 8 to 32 mg/L with P. aerug. Ps296 VIM-2; < 4 mg/L with K.P. 156319 KPC-3; < 4 mg/L in the test with S. aureus MSSA-7 PC-1; < 4 mg/L in the test with K.P. A-1797 KPC-2 VIM-4. Besides, on p99 AmpC, the IC50 is < 0.1 µM.

Consider `NC1CN(C2CCC(CC(=O)N[C@H]3Cc4cccc(C(=O)O)c4OB3O)CC2)C1` (stereo partly drawn) [Example 35, (3R)-3-(2-(4-(3-aminoazetidin-1-yl)cyclohexyl)acetamido)-2-hydroxy-3,4-dihydro-2H-benzo[e][1,2]oxaborinine-8-carboxylic acid], for which the MIC with E. coli ESBL4 CTX-M-15 is < 4 mg/L; in the test with E. cl 144200 p99 AmpC, < 4 mg/L; with P. aerug. Ps296 VIM-2, < 4 mg/L; in the test with K.P. 156319 KPC-3, < 4 mg/L; in the test on S. aureus MSSA-7 PC-1, < 4 mg/L; in the test with K.P. A-1797 KPC-2 VIM-4 it was 8 to 32 mg/L. For the same molecule, on p99 AmpC, the IC50 was < 0.1 µM.

Take `O=C(CC1CCC(NC2CNC2)CC1)N[C@H]1Cc2cccc(C(=O)O)c2OB1O` (stereo partly drawn) [Example 36, (3R)-3-(2-(4-(azetidin-3-ylamino)cyclohexyl)acetamido)-2-hydroxy-3,4-dihydro-2H-benzo[e][1,2]oxaborinine-8-carboxylic acid]: the MIC is < 4 mg/L in the test on E. coli ESBL4 CTX-M-15; < 4 mg/L with E. cl 144200 p99 AmpC; < 4 mg/L with P. aerug. Ps296 VIM-2; < 4 mg/L in the test on K.P. 156319 KPC-3; < 4 mg/L with S. aureus MSSA-7 PC-1; 8 to 32 mg/L in the test on K.P. A-1797 KPC-2 VIM-4. Besides, the IC50 at p99 AmpC was < 0.1 µM.
